Results: ChEMBL document CHEMBL4804284

Legend:
Set-up in all cases: scale not given: the % may be the effect or the level left
[1] = target: Phosphatidylinositol 4-phosphate 5-kinase type-1 gamma (Homo sapiens) (UniProt O60331); assay: Inhibition of DNA-tagged human PIP5K1C assessed as percent of control at 50000 nM by qPCR analysis relative to control
[2] = target: Serine/threonine-protein kinase Nek6 (Homo sapiens) (UniProt Q9HC98); assay: Inhibition of DNA-tagged human NEK6 assessed as percent of control at 50000 nM by qPCR analysis relative to control
[3] = target: Fibroblast growth factor receptor 2 (Homo sapiens) (UniProt P21802); assay: Inhibition of DNA-tagged human FGFR2 assessed as percent of control at 50000 nM by qPCR analysis relative to control
[4] = target: Activin receptor type-1-like (Homo sapiens) (UniProt P37023); assay: Inhibition of DNA-tagged human ACVRL1 assessed as percent of control at 50000 nM by qPCR analysis relative to control
[5] = target: Tyrosine-protein kinase Blk (Homo sapiens) (UniProt P51451); assay: Inhibition of DNA-tagged human BLK assessed as percent of control at 50000 nM by qPCR analysis relative to control
[6] = target: cAMP-dependent protein kinase catalytic subunit alpha (Homo sapiens) (UniProt P17612); assay: Inhibition of DNA-tagged human PKAC-alpha assessed as percent of control at 50000 nM by qPCR analysis relative to control
[7] = target: Dual specificity mitogen-activated protein kinase kinase 6 (Homo sapiens) (UniProt P52564); assay: Inhibition of DNA-tagged human MEK6 assessed as percent of control at 50000 nM by qPCR analysis relative to control
Dual specificity mitogen-activated protein kinase kinase 6 (Homo sapiens), sequence (P52564 whole entry): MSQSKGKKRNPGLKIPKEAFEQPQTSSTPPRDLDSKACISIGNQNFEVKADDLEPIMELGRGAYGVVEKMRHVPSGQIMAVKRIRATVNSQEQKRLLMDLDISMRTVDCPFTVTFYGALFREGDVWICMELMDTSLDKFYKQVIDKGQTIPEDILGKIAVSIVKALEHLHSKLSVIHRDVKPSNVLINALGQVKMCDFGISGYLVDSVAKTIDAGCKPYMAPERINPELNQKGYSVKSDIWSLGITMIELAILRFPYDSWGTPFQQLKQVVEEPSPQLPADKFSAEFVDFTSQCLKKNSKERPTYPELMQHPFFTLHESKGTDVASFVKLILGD

[8] = target: Serine/threonine-protein kinase N2 (Homo sapiens) (UniProt Q16513); assay: Inhibition of DNA-tagged human PKN2 assessed as percent of control at 50000 nM by qPCR analysis relative to control
[9] = target: Serine/threonine-protein kinase N1 (Homo sapiens) (UniProt Q16512); assay: Inhibition of DNA-tagged human PKN1 assessed as percent of control at 50000 nM by qPCR analysis relative to control
[10] = tested on: Mast/stem cell growth factor receptor Kit (Homo sapiens), P10721 [V559D]; assay: Inhibition of DNA-tagged human KIT V559D mutant assessed as percent of control at 50000 nM by qPCR analysis relative to control
Mast/stem cell growth factor receptor Kit (Homo sapiens), P10721 [V559D], sequence (P10721 whole entry V559D, canonical isoform): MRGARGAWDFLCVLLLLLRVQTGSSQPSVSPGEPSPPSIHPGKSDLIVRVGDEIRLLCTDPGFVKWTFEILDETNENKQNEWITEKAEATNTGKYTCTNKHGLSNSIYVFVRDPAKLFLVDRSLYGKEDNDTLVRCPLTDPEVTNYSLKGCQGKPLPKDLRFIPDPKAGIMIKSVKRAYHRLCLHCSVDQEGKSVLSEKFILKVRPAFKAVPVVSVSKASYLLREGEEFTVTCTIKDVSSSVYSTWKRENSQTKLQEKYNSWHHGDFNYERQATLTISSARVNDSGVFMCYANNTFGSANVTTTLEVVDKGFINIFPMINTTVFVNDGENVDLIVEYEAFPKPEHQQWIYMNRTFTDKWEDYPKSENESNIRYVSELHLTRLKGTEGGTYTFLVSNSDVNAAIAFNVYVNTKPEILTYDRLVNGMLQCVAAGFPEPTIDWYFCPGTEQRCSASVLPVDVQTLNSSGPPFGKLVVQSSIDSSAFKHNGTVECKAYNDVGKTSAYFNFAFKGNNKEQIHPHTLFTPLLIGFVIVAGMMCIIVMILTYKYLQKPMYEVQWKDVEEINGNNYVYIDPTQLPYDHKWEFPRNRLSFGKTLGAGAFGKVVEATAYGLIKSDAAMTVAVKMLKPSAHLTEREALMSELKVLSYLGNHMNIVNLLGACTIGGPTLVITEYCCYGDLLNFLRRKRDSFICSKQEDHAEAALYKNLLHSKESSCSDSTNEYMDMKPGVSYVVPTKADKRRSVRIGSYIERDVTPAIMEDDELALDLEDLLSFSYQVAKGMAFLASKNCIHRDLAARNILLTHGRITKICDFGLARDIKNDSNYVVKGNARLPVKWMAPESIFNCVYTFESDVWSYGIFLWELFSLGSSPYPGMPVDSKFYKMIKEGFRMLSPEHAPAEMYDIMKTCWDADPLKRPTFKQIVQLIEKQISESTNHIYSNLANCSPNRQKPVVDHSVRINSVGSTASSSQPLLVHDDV

[11] = target: Phosphorylase b kinase gamma catalytic chain, skeletal muscle/heart isoform (Homo sapiens) (UniProt Q16816); assay: Inhibition of DNA-tagged human PHKG1 assessed as percent of control at 50000 nM by qPCR analysis relative to control
Phosphorylase b kinase gamma catalytic chain, skeletal muscle/heart isoform (Homo sapiens), sequence (Q16816 whole entry, looked up, canonical isoform): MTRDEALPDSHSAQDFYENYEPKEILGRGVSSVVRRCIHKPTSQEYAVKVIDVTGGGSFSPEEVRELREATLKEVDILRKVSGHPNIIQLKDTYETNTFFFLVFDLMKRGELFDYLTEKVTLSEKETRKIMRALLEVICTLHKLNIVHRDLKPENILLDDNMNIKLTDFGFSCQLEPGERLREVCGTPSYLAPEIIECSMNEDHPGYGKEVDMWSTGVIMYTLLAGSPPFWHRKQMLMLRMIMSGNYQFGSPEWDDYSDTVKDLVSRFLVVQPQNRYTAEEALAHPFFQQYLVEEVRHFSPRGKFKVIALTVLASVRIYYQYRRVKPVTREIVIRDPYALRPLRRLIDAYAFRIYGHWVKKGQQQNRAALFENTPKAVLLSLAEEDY

[12] = target: Receptor-interacting serine/threonine-protein kinase 4 (Homo sapiens) (UniProt P57078); assay: Inhibition of DNA-tagged human RIPK4 assessed as percent of control at 50000 nM by qPCR analysis relative to control
Receptor-interacting serine/threonine-protein kinase 4 (Homo sapiens), sequence (P57078 whole entry): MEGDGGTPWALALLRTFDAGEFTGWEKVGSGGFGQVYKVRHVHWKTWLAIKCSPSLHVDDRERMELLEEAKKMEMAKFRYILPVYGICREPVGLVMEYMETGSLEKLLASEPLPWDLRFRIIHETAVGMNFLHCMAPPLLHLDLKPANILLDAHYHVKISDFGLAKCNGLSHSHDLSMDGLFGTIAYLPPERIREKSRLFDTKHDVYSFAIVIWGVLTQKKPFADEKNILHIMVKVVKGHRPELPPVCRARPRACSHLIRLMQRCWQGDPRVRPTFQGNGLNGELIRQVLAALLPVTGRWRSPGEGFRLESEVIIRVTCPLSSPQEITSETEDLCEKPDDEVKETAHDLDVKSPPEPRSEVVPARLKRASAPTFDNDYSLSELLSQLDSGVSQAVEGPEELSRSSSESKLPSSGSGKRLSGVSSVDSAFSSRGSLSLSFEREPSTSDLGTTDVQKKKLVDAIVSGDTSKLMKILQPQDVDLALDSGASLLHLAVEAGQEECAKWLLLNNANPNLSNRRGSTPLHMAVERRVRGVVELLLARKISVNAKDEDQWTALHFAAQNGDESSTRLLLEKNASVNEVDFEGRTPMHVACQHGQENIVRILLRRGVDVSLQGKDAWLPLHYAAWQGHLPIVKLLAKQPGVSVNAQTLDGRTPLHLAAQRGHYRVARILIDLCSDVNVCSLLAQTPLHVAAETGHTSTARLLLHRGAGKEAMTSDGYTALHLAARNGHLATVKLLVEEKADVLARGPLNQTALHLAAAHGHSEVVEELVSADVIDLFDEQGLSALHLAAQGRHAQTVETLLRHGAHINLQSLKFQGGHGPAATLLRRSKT

[13] = target: RAF proto-oncogene serine/threonine-protein kinase (Homo sapiens) (UniProt P04049); assay: Inhibition of DNA-tagged human RAF1 assessed as percent of control at 50000 nM by qPCR analysis relative to control
[14] = target: Microtubule-associated serine/threonine-protein kinase 1 (Homo sapiens) (UniProt Q9Y2H9); assay: Inhibition of DNA-tagged human MAST1 assessed as percent of control at 50000 nM by qPCR analysis relative to control
[15] = target: Serine/threonine-protein kinase 32A (Homo sapiens) (UniProt Q8WU08); assay: Inhibition of DNA-tagged human YANK1 assessed as percent of control at 50000 nM by qPCR analysis relative to control
[16] = target: Serine/threonine-protein kinase 38 (Homo sapiens) (UniProt Q15208); assay: Inhibition of DNA-tagged human NDR1 assessed as percent of control at 50000 nM by qPCR analysis relative to control
Serine/threonine-protein kinase 38 (Homo sapiens), sequence (Q15208 2-465 limits assumed): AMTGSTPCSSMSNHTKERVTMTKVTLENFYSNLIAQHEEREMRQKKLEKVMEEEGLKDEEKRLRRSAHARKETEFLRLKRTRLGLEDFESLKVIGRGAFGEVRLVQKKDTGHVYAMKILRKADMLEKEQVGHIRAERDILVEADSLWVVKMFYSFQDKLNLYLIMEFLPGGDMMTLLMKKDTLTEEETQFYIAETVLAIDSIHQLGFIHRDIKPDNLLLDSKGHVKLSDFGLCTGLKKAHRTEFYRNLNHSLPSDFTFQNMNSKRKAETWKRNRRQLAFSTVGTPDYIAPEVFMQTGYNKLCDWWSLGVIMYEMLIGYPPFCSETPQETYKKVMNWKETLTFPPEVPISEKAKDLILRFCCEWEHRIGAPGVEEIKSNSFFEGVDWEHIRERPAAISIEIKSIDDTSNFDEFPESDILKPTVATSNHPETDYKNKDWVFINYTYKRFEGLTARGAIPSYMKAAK

[17] = target: Serine/threonine-protein kinase SIK3 (Homo sapiens) (UniProt Q9Y2K2); assay: Inhibition of DNA-tagged human QSK assessed as percent of control at 50000 nM by qPCR analysis relative to control
[18] = target: Dual specificity mitogen-activated protein kinase kinase 4 (Homo sapiens) (UniProt P45985); assay: Inhibition of DNA-tagged human MEK4 assessed as percent of control at 50000 nM by qPCR analysis relative to control
[19] = tested on: Tyrosine-protein kinase ABL1 (Homo sapiens), P00519 [F317I]; assay: Inhibition of DNA-tagged phosphorylated human ABL1 F317I mutant assessed as percent of control at 50000 nM by qPCR analysis relative to control
[20] = target: Cyclin-G-associated kinase (Homo sapiens) (UniProt O14976); assay: Inhibition of DNA-tagged human GAK assessed as percent of control at 50000 nM by qPCR analysis relative to control
[21] = target: Serine/threonine-protein kinase B-raf (Homo sapiens) (UniProt P15056); assay: Inhibition of DNA-tagged human BRAF assessed as percent of control at 50000 nM by qPCR analysis relative to control
Serine/threonine-protein kinase B-raf (Homo sapiens), sequence (P15056 whole entry): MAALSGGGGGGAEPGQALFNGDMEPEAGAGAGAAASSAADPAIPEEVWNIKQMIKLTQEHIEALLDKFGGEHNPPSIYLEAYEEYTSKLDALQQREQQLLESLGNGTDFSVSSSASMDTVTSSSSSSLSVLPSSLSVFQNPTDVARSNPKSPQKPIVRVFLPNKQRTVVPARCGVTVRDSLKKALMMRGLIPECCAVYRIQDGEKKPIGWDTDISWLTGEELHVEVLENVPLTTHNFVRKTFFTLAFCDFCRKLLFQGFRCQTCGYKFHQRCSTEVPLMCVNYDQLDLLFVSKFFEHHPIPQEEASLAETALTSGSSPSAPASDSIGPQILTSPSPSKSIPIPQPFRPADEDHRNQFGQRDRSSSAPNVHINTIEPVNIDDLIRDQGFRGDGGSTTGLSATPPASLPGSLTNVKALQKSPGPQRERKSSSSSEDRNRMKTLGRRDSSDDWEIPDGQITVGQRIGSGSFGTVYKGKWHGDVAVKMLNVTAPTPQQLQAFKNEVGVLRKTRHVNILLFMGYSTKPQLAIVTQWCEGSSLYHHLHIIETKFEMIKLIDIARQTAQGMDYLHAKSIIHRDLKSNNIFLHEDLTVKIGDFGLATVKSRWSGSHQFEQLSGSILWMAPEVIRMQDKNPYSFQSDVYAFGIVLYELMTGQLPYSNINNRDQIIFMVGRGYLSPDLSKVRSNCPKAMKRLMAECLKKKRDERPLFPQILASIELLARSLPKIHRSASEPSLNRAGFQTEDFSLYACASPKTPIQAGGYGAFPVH

[22] = target: Serine/threonine-protein kinase PAK 3 (Homo sapiens) (UniProt O75914); assay: Inhibition of DNA-tagged human PAK3 assessed as percent of control at 50000 nM by qPCR analysis relative to control
Serine/threonine-protein kinase PAK 3 (Homo sapiens), sequence (O75914 whole entry, looked up): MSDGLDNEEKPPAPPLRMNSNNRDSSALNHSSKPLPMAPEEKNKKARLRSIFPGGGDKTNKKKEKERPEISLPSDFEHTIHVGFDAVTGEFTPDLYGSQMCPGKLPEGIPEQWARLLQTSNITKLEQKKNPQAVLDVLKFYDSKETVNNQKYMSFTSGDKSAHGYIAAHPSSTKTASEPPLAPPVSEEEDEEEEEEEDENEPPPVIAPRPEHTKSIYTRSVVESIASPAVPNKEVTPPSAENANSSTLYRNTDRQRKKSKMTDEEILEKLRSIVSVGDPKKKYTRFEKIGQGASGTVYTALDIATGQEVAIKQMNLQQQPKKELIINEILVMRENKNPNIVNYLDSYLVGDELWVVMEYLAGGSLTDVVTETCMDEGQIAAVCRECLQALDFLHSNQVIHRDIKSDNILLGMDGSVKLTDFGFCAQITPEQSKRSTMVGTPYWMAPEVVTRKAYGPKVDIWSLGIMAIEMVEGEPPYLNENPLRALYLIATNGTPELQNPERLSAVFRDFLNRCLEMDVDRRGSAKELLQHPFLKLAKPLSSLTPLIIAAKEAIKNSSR

[23] = target: Myosin light chain kinase 2, skeletal/cardiac muscle (Homo sapiens) (UniProt Q9H1R3); assay: Inhibition of DNA-tagged human MYLK2 assessed as percent of control at 50000 nM by qPCR analysis relative to control
[24] = target: Dual specificity tyrosine-phosphorylation-regulated kinase 2 (Homo sapiens) (UniProt Q92630); assay: Inhibition of DNA-tagged human DYRK2 assessed as percent of control at 50000 nM by qPCR analysis relative to control
Dual specificity tyrosine-phosphorylation-regulated kinase 2 (Homo sapiens), sequence (Q92630 whole entry): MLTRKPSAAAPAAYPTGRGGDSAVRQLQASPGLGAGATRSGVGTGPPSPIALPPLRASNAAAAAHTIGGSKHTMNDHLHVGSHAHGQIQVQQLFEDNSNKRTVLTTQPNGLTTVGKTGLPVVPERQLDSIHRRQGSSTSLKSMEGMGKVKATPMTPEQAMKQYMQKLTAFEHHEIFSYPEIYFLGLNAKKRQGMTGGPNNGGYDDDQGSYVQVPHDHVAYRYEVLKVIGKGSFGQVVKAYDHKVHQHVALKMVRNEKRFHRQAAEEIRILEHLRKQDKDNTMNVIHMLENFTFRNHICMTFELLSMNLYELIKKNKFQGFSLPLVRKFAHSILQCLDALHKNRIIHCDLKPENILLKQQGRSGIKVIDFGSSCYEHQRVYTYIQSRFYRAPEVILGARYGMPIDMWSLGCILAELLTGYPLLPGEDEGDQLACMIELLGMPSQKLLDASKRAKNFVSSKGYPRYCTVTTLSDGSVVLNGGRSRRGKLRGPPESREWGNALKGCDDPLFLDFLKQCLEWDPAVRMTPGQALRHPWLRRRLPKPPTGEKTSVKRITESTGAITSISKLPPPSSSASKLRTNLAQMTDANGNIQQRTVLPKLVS

[25] = tested on: Epidermal growth factor receptor (Homo sapiens), P00533 [UNDEFINED MUTATION]; assay: Inhibition of DNA-tagged human EGFR S752-1759del mutant assessed as percent of control at 50000 nM by qPCR analysis relative to control
[26] = target: Mitogen-activated protein kinase 11 (Homo sapiens) (UniProt Q15759); assay: Inhibition of DNA-tagged human p38-beta assessed as percent of control at 50000 nM by qPCR analysis relative to control
[27] = target: Atypical kinase COQ8A, mitochondrial (Homo sapiens) (UniProt Q8NI60); assay: Inhibition of DNA-tagged human ADCK3 assessed as percent of control at 50000 nM by qPCR analysis relative to control
[28] = tested on: Epidermal growth factor receptor (Homo sapiens), P00533 [G719C]; assay: Inhibition of DNA-tagged human EGFR G719C mutant assessed as percent of control at 50000 nM by qPCR analysis relative to control
[29] = target: Serine/threonine-protein kinase Nek1 (Homo sapiens) (UniProt Q96PY6); assay: Inhibition of DNA-tagged human NEK1 assessed as percent of control at 50000 nM by qPCR analysis relative to control

CN1C(=O)/C(=C2/C(=O)Nc3ccccc32)c2ccccc21
Activity [1]: 81%
Activity [2]: 81%
Activity [3]: 89%
Activity [4]: 100%
Activity [5]: 100%
Activity [6]: 93%
Activity [7]: 100%
Activity [8]: 99%
Activity [9]: 100%
Activity [10]: 91%
Activity [11]: 97%
Activity [12]: 98%
Activity [13]: 100%
Activity [14]: 85%
Activity [15]: 99%
Activity [16]: 87%
Activity [17]: 100%
Activity [18]: 100%
Activity [19]: 100%
Activity [20]: 98%
Activity [21]: 84%
Activity [22]: 93%
Activity [23]: 94%
Activity [24]: 84%
Activity [25]: 88%
Activity [26]: 100%
Activity [27]: 74%
Activity [28]: 89%
Activity [29]: 92%
